From patent US20120245137A1 (Zalicus Pharmaceuticals Ltd., priority 2009, published 2012)

Columns and labels:
Assay type in all cases: cell-based
[1] = biological target: N-type calcium channel subunits (α1B, α2δ, and β3a) (Homo sapiens, UniProt Q00975); experiment: Block of Cav2.2 channel, whole cell voltage clamp, manual and PatchXpress; settings: Table 5; table follows Assay Example 3 (whole cell voltage clamp / PatchXpress); assay not given
In short: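 Percent block taken as current amplitude ratio with versus without compound, applied in rising doses; IC50 fitted where one cell received multiple doses. Protocol: 50 ms pulses to +20 mV at 0.067 Hz from […] or −90 mV holding; P/n leak subtraction, no junction-potential correction; manual and PatchXpress recordings.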

[2] = biological target: human α1H T-type channels (Homo sapiens, UniProt O95180); experiment: T-type calcium channel block, whole cell patch clamp, α1H; settings: HEK cells stably expressing human α1H; mainly non-inactivated protocol; values above 10,000 nM represented as 10000
In short: (§1)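 Whole-cell voltage clamp on stably transfected HEK 293 lines carrying human α1H or α1G. Two voltage protocols used: non-inactivated pre-pulse for resting block, inactivated for voltage-dependent block; test agents perfused locally in external solution (0.1-0.01% DMSO) following ~10 min rest.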

[3] = biological target: human α1G T-type channels (Homo sapiens, UniProt O43497); experiment: T-type calcium channel block, whole cell patch clamp, α1G; settings: HEK cells stably expressing human α1G; mainly non-inactivated protocol; values above 10,000 nM represented as 10000
In short: as §1

Chain of human α1G T-type channels (O43497 whole entry): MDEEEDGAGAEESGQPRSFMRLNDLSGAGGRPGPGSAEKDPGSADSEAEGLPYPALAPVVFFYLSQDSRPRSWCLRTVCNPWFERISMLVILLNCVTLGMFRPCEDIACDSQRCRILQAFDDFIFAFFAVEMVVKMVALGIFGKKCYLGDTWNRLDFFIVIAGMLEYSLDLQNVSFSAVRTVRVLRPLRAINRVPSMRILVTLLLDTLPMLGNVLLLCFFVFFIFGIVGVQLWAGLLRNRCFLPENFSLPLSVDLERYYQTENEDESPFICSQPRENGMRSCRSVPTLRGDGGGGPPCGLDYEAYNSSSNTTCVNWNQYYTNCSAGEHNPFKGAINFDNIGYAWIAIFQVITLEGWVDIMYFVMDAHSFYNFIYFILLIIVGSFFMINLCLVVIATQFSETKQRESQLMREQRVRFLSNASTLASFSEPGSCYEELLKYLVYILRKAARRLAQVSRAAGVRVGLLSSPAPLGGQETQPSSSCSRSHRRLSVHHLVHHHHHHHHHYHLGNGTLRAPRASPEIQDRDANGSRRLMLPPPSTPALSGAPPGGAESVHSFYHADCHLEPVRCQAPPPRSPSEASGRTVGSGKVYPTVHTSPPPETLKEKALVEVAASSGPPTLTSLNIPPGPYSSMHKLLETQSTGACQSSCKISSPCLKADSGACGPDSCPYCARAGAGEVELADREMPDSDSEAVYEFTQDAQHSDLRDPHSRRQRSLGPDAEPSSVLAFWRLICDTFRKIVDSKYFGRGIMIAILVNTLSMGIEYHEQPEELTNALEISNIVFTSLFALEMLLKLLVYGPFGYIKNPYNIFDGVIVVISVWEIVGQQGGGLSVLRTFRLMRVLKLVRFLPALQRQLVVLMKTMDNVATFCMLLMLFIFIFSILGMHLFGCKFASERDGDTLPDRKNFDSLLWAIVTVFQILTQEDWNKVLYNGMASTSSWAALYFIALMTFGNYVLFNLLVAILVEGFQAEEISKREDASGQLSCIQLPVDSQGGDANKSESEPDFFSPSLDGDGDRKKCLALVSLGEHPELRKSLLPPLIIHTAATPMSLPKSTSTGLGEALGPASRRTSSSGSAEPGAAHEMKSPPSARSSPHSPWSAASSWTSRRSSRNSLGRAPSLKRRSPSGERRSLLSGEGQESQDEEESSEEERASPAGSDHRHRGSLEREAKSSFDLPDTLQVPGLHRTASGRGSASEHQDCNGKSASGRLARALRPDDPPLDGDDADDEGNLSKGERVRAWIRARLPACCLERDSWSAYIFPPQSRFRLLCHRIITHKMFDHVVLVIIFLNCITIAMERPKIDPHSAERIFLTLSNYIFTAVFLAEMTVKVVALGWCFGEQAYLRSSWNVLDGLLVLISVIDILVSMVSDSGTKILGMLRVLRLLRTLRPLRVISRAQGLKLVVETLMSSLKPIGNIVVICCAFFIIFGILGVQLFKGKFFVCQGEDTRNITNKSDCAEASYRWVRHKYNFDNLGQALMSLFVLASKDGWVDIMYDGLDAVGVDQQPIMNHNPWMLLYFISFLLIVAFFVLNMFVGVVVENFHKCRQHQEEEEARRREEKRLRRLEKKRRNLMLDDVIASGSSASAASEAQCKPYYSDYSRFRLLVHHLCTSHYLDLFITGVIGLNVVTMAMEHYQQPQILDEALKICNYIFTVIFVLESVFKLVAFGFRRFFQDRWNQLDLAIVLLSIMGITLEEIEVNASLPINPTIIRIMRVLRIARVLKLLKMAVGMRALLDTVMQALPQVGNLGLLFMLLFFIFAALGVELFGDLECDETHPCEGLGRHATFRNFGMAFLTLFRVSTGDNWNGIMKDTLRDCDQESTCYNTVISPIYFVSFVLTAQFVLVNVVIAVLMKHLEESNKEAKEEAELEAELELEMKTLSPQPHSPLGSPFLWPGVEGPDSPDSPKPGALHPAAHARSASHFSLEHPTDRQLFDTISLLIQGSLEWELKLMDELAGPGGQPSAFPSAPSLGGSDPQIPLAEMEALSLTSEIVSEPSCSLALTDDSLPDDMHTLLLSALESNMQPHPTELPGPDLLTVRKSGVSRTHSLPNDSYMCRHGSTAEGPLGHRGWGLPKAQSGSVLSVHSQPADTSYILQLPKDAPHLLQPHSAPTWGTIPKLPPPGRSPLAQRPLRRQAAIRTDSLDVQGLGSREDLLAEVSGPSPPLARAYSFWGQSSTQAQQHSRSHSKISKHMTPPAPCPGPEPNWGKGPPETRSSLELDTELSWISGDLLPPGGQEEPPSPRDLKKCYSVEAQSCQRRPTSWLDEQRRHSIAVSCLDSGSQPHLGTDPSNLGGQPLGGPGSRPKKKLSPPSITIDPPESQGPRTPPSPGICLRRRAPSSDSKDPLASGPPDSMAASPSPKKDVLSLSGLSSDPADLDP
Chain of human α1H T-type channels (O95180 whole entry, the tested form may be a part): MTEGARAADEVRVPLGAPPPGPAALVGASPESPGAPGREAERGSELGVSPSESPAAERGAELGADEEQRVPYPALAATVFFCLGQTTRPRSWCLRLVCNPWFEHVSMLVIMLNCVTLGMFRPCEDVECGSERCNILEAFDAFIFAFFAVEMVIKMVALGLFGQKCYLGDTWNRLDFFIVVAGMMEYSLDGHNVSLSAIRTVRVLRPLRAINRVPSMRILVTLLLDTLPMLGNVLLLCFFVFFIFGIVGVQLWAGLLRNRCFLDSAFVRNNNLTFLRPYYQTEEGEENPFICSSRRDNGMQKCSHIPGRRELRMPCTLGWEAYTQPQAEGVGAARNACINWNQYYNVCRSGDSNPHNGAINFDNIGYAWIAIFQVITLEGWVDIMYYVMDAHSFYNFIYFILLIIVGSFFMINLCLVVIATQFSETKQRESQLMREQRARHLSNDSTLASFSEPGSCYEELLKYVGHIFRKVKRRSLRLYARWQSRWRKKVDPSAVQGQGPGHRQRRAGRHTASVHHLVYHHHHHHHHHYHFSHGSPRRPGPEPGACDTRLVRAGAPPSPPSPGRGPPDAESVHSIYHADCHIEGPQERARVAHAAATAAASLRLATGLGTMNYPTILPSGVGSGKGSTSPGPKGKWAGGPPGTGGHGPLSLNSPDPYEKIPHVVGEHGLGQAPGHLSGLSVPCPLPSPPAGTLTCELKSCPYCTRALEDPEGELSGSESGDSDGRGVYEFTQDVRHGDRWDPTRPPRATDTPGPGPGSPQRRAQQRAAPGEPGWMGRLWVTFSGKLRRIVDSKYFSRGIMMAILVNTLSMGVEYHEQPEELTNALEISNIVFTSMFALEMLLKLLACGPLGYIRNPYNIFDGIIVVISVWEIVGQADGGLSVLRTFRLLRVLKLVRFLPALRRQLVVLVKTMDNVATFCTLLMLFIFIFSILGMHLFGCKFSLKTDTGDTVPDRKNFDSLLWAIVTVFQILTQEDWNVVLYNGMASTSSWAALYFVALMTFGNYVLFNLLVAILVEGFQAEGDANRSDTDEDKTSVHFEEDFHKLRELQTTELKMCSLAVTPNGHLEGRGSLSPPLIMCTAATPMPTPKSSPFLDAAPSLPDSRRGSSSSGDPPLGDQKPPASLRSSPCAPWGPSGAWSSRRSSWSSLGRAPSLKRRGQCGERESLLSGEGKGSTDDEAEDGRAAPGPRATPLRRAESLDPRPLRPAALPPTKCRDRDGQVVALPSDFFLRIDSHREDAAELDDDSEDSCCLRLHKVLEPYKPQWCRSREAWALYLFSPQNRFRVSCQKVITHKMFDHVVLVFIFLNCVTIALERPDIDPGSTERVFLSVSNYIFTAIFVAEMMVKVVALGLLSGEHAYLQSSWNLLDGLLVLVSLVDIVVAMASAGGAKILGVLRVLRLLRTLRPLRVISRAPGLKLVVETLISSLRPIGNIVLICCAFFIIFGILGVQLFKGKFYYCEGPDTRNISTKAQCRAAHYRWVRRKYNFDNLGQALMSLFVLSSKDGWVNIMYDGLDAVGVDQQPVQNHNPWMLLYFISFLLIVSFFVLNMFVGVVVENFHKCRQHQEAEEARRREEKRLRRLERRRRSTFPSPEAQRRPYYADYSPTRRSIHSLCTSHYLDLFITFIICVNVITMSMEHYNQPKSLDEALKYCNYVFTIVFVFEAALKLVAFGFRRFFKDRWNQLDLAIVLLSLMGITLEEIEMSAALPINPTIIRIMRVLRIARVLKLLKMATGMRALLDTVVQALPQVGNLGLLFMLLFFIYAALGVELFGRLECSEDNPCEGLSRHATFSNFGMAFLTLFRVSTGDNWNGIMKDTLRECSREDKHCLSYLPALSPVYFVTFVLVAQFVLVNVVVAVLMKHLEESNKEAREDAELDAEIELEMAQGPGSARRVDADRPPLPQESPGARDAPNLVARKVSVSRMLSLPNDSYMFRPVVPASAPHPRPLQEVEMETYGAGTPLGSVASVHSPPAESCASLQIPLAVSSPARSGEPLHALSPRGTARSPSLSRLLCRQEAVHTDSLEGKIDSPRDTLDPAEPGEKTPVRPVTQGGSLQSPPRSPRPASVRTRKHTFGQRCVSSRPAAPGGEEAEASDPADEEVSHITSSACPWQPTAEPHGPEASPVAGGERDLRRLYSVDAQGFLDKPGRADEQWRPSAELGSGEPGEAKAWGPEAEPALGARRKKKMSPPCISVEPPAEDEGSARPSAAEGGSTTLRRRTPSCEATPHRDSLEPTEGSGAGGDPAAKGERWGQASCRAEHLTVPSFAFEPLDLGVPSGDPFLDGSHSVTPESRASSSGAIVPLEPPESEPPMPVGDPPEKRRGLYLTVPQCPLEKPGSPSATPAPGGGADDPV

| Compound | IC50 [1] [nM] | IC50 [2] [nM] | IC50 [3] [nM] |
| --- | --- | --- | --- |
| 4-chloro-3-fluoro-N-((1R,4R)-4-(3- (trifluoromethyl)phenylsulfonyl) cyclohexyl)benzamide [Compound 123] | 660 | 440 | 30 |
| 4-fluoro-3-(trifluoromethyl)-N- ((1S,4S)-4-((3- (trifluoromethyl)phenylsulfonyl) methyl)cyclohexyl)benzamide [Compound 138] | 420 | 2840 | 9880 |
| 4-fluoro-N-(4-methyl-4-(3- (trifluoromethyl)phenylsulfonyl) cyclohexyl)-3-(trifluoromethyl) benzamide [Compound 4] | 140 | 6740 | 8540 |
| 5-(trifluoromethyl)-N-((1R,4R)-4- ((3- (trifluoromethyl)phenylsulfonyl) methyl)cyclohexyl)picolinamide [Compound 104] | 840 | > 10000 | > 10000 |
| CC1(S(=O)(=O)c2cccc(C(F)(F)F)c2)CCC(NC(=O)c2ccc(C(F)(F)F)nc2)CC1 (stereo not drawn) [Compound 1, N-(4-methyl-4-(3-(trifluoromethyl)phenylsulfonyl)cyclohexyl)-6-(trifluoromethyl) nicotinamide] | 1030 | 7400 | > 10000 |
| CC1(S(=O)(=O)c2cccc(C(F)(F)F)c2)CCC(NC(=O)c2cnc(C(F)(F)F)nc2)CC1 (stereo not drawn) [Compound 2, N-(4-methyl-4-(3-(trifluoromethyl)phenylsulfonyl)cyclohexyl)-2-(trifluoromethyl) pyrimidine-5-carboxamide] | 950 | 1170 | 1380 |
| Cn1nc(C(F)(F)F)cc1C(=O)NC1CCC(C)(S(=O)(=O)c2cccc(C(F)(F)F)c2)CC1 (stereo not drawn) [Compound 6, 1-methyl-N-(4-methyl-4-(3-(trifluoromethyl)phenylsulfonyl)cyclohexyl)-3-(trifluoromethyl)-1H-pyrazole-5-carboxamide] | 330 | > 10000 | > 10000 |
| CC1(S(=O)(=O)c2cccc(C(F)(F)F)c2)CCC(NC(=O)c2ccn(CC(F)(F)F)n2)CC1 (stereo not drawn) [Compound 7, N-(4-methyl-4-(3-(trifluoromethyl)phenylsulfonyl)cyclohexyl)-l-(2,2,2-trifluoroethyl)-1H-pyrazole-3-carboxamide] | 1580 | > 10000 | > 10000 |
| O=C(NC1CCC(S(=O)(=O)c2cccc(C(F)(F)F)c2)CC1)c1ccc(C(F)(F)F)nc1 (stereo not drawn) [Compound 8, 6-(trifluoromethyl)-N-(4-(3-(trifluoromethyl)phenylsulfonyl)cyclohexyl)nicotinamide] | 2300 | 6710 | > 10000 |
| O=C(NC1CCC(S(=O)(=O)c2cccc(C(F)(F)F)c2)CC1)c1cnc(C(F)(F)F)nc1 (stereo not drawn) [Compound 9, 2-(trifluoromethyl)-N-(4-(3-(trifluoromethyl)phenylsulfonyl)cyclohexyl)pyrimidine-5-carboxamide] | 2520 | 1030 | 1130 |
| O=C(NC1CCC(S(=O)(=O)c2cccc(C(F)(F)F)c2)CC1)c1ccc(C(F)(F)F)cn1 (stereo not drawn) [Compound 10, 5-(trifluoromethyl)-N-(4-(3-(trifluoromethyl)phenylsulfonyl)cyclohexyl)picolinamide] | 1460 | 3820 | 4200 |
| O=C(NC1CCC(S(=O)(=O)c2cccc(C(F)(F)F)c2)CC1)c1ccc(F)c(C(F)(F)F)c1 (stereo not drawn) [Compound 11, 4-fluoro-3-(trifluoromethyl)-N-(4-(3-(trifluoromethyl)phenylsulfonyl)cyclohexyl)benzamide] | 150 | > 10000 | > 10000 |
| Cn1nc(C(F)(F)F)cc1C(=O)NC1CCC(S(=O)(=O)c2cccc(C(F)(F)F)c2)CC1 (stereo not drawn) [Compound 13, 1-methyl-3-(trifluoromethyl)-N-(4-(3-(trifluoromethyl)phenylsulfonyl)cyclohexyl)-1H-pyrazole-5-carboxamide] | 690 | > 10000 | > 10000 |
| O=C(NC1CCC(S(=O)(=O)c2cccc(C(F)(F)F)c2)CC1)c1ccn(CC(F)(F)F)n1 (stereo not drawn) [Compound 14, 1-(2,2,2-trifluoroethyl)-N-(4-(3-(trifluoromethyl)phenylsulfonyl)cyclohexyl)-1H-pyrazole-3-carboxamide] | 2210 | 330 | 1320 |
| CC(C)(C)NC(=O)CNC1CCC(C)(S(=O)(=O)c2cccc(C(F)(F)F)c2)CC1 (stereo not drawn) [Compound 15, N-tert-butyl-2-(4-methyl-4-(3-(trifluoromethyl)phenylsulfonyl)cyclohexylamino)acetamide] | 50 | 4620 | > 10000 |
| CC(C)(C)NC(=O)CNC1CCC(S(=O)(=O)c2cccc(C(F)(F)F)c2)CC1 (stereo not drawn) [Compound 16, N-tert-butyl-2-(4-(3-(trifluoromethyl)phenylsulfonyl)cyclohexylamino)acetamide] | 140 | 9180 | > 10000 |
| CC1(S(=O)(=O)c2cccc(C(F)(F)F)c2)CCC(NC(=O)CNC2CCCCC2)CC1 (stereo not drawn) [Compound 17, 2-(cyclohexylamino)-N-(4-methyl-4-(3-(trifluoromethyl)phenylsulfonyl)cyclohexyl)acetamide] | 260 | 1420 | 2330 |
| CC1(S(=O)(=O)c2cccc(C(F)(F)F)c2)CCN(C(=O)CNC2CCCCC2)CC1 [Compound 18, 2-(cyclohexylamino)-l-(4-methyl-4-(3-(trifluoromethyl)phenylsulfonyl)piperidin-l-yl)ethanone] | 390 | 2720 | 3060 |
| CC1(S(=O)(=O)c2cccc(C(F)(F)F)c2)CCC(NC(=O)c2cc(F)cc(Cl)c2)CC1 (stereo not drawn) [Compound 19, 3-chloro-5-fluoro-N-(4-methyl-4-(3-(trifluoromethyl)phenylsulfonyl)cyclohexyl)benzamide] | 60 | 3020 | 5240 |
| COc1cc(F)cc(C(=O)NC2CCC(C)(S(=O)(=O)c3cccc(C(F)(F)F)c3)CC2)c1 (stereo not drawn) [Compound 20, 3-fluoro-5-methoxy-N-(4-methyl-4-(3-(trifluoromethyl)phenylsulfonyl)cyclohexyl)benzamide] | 70 | 1380 | 1970 |
| CC1(S(=O)(=O)c2cccc(C(F)(F)F)c2)CCC(NC(=O)c2cc(C(F)(F)F)ccn2)CC1 (stereo not drawn) [Compound 21, N-(4-methyl-4-(3-(trifluoromethyl)phenylsulfonyl)cyclohexyl)-4-(trifluoromethyl)picolinamide] | 200 | 4020 | 6560 |
| CN(C(=O)CNC1CCC(S(=O)(=O)c2cccc(C(F)(F)F)c2)CC1)C(C)(C)C (stereo not drawn) [Compound 23, N-tert-butyl-N-methyl-2-(4-(3-(trifluoromethyl)phenylsulfonyl)cyclohexylamino)acetamide] | 240 | 1190 | 2790 |
| COc1cc(F)cc(C(=O)NC2CCC(S(=O)(=O)c3cccc(C(F)(F)F)c3)CC2)c1 (stereo not drawn) [Compound 25, 3-fluoro-5-methoxy-N-(4-(3-(trifluoromethyl)phenylsulfonyl)cyclohexyl)benzamide] | 360 | 4660 | 2790 |
| O=C(NC1CCC(S(=O)(=O)c2cccc(C(F)(F)F)c2)CC1)c1cc(F)cc(Cl)c1 (stereo not drawn) [Compound 26, 3-chloro-5-fluoro-N-(4-(3-(trifluoromethyl)phenylsulfonyl)cyclohexyl)benzamide] | 210 | > 10000 | 2790 |
| CC(C)(C)NC(=O)CN[C@H]1CC[C@@](F)(S(=O)(=O)c2cccc(C(F)(F)F)c2)CC1 [Compound 27, N-tert-butyl-2-((1S,4S)-4-fluoro-4-(3-(trifluoromethyl)phenylsulfonyl)cyclohexylamino)acetamide] | 250 | 720 | 760 |
| CC(C)(C)NC(=O)CN[C@H]1CC[C@](F)(S(=O)(=O)c2cccc(C(F)(F)F)c2)CC1 [Compound 28, N-tert-butyl-2-((1R,4R)-4-fluoro-4-(3-(trifluoromethyl)phenylsulfonyl)cyclohexylamino)acetamide] | 940 | 1270 | 1230 |
| O=C(NC[C@H]1CC[C@@H](S(=O)(=O)c2cccc(C(F)(F)F)c2)CC1)c1cc(F)cc(Cl)c1 [Compound 29, 3-chloro-5-fluoro-N-(((1S,4S)-4-(3-(trifluoromethyl)phenylsulfonyl)cyclohexyl)methyl)benzamide] | 610 | 430 | 260 |
| COc1cc(F)cc(C(=O)NC[C@H]2CC[C@@H](S(=O)(=O)c3cccc(C(F)(F)F)c3)CC2)c1 [Compound 30, 3-fluoro-5-methoxy-N-(((1S,4S)-4-(3-(trifluoromethyl)phenylsulfonyl)cyclohexyl)methyl)benzamide] | 720 | 1410 | 1290 |
| O=C(NC[C@H]1CC[C@@H](S(=O)(=O)c2cccc(C(F)(F)F)c2)CC1)c1ccc(F)c(C(F)(F)F)c1 [Compound 31, 4-fluoro-3-(trifluoromethyl)-N-(((1S,4S)-4-(3-(trifluoromethyl)phenylsulfonyl)cyclohexyl)methyl)benzamide] | 360 | 5540 | 1150 |
